19 compounds from patent publication US10730874B2 (Shire Human Genetic Therapies, Inc., priority 2018, dated 2020) can be followed below.

In this assay the target is human activated kallikrein enzyme (plasma kallikrein) (Homo sapiens (Human), UniProt P03952). In words: Inhibition of human activated plasma kallikrein, fluorogenic peptide substrate assay, 500 pM enzyme format. Type of assay: biochemical. The following applies: 500 pM activated kallikrein enzyme, 300 uM Pro-Phe-Arg-7-amido-4-methylcoumarin substrate, 30 min preincubation, 10 min at RT; read-out: Primary Dose Response Assay: Average EC50. The essentials: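 Buffer 20 mM Tris pH 7.5, EDTA, NaCl, PEG-400, Triton X-100; 300 uM Pro-Phe-Arg-AMC; enzyme–inhibitor preincubation 30 min RT. Format one: 500 pM kallikrein, 10 min RT reaction; format two: 5 pM kallikrein, 18 h RT reaction. Fluorescence read at 460 nm (380 nm excitation).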
Chain of human activated kallikrein enzyme (plasma kallikrein) (P03952 391-638): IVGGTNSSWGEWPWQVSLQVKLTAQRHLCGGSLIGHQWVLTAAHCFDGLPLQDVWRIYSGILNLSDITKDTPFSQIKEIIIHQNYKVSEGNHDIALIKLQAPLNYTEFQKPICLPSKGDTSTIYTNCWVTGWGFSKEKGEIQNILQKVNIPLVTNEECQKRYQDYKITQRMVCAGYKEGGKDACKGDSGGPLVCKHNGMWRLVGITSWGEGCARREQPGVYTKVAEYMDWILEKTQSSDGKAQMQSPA
Chain of human activated kallikrein enzyme (plasma kallikrein) (P03952 20-390 partner): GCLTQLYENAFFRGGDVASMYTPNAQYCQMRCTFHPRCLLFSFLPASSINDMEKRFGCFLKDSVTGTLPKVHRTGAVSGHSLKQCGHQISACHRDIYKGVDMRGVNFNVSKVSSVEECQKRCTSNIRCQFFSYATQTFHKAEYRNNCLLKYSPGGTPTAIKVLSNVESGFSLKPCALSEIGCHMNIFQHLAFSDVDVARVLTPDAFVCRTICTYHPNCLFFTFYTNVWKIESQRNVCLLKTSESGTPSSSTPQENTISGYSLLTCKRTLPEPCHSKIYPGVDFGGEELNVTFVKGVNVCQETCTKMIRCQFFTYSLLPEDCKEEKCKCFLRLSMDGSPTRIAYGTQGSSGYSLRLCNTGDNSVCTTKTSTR
In general, EC50 refers to the concentration needed to bring the measured effect to its halfway point. As to `CCOC(=O)CCc1cc(C2CC2)cn2cc(Cn3cc(C(=O)NCc4ncn5ccc(Cl)c(F)c45)nn3)nc12` [Example I-163a, ethyl 3-(2-((4-(((7-chloro-8-fluoroimidazo[1,5-a]pyridin-1-yl)methyl)carbamoyl)-1H-1,2,3-triazol-1-yl)methyl)-6-cyclopropylimidazo[1,2-a]pyridin-8-yl)propanoate], the EC50 is less than 1 nM. On to `CC1CC1c1ccc2nc(Cn3cc(C(=O)NCc4ncn5ccc(Br)cc45)cn3)cn2c1` (stereo not shown) [Example I-44, N-((7-bromoimidazo[1,5-a]pyridin-1-yl)methyl)-1-((6-(2-methylcyclopropyl)imidazo[1,2-a]pyridin-2-yl)methyl)-1H-pyrazole-4-carboxamide], for which the EC50 was less than 1 nM. As to `COC(=O)Cc1cc(C2CC2)cn2cc(Cn3cc(C(=O)NCc4ncn5ccc(Cl)cc45)cn3)nc12` [Example I-81, methyl 2-(2-((4-(((7-chloroimidazo[1,5-a]pyridin-1-yl)methyl)carbamoyl)-1H-pyrazol-1-yl)methyl)-6-cyclopropylimidazo[1,2-a]pyridin-8-yl)acetate], the EC50 was less than 1 nM. `O=C(NCc1ncn2ccc(Cl)c(F)c12)c1cn(Cc2cn3cc(C4CC4)cc(COCCO)c3n2)nn1` [Example I-301, N-((7-chloro-8-fluoroimidazo[1,5-a]pyridin-1-yl)methyl)-1-((6-cyclopropyl-8-((2-hydroxyethoxy)methyl)imidazo[1,2-a]pyridin-2-yl)methyl)-1H-1,2,3-triazole-4-carboxamide]: the EC50 was less than 1 nM. As for `O=C(O)COc1cc(C2CC2)cn2cc(Cn3cc(C(=O)NCc4ncn5ccc(Cl)c(F)c45)nn3)nc12` [Example I-208, 2-((2-((4-(((7-chloro-8-fluoroimidazo[1,5-a]pyridin-1-yl)methyl)carbamoyl)-1H-1,2,3-triazol-1-yl)methyl)-6-cyclopropylimidazo[1,2-a]pyridin-8-yl)oxy)acetic acid], the figure is less than 1 nM; as for `O=Cc1cc(C2CC2)cn2cc(Cn3cc(C(=O)NCc4ncn5ccc(Cl)c(F)c45)nn3)nc12` [Example I-182, N-((7-chloro-8-fluoroimidazo[1,5-a]pyridin-1-yl)methyl)-1-((6-cyclopropyl-8-formylimidazo[1,2-a]pyridin-2-yl)methyl)-1H-1,2,3-triazole-4-carboxamide], less than 1 nM; as for `COC(=O)C(F)Cc1cc(C2CC2)cn2cc(Cn3cc(C(=O)NCc4ncn5ccc(Cl)c(F)c45)nn3)nc12` (stereo not shown) [Example I-224a, methyl 3-(2-((4-(((7-chloro-8-fluoroimidazo[1,5-a]pyridin-1-yl)methyl)carbamoyl)-1H-1,2,3-triazol-1-yl)methyl)-6-cyclopropylimidazo[1,2-a]pyridin-8-yl)-2-fluoropropanoate], less than 1 nM.

Turning to `O=C(O)c1cn(-c2cc(C3CC3)cn3cc(Cn4cc(C(=O)NCc5ncn6ccc(Cl)c(F)c56)nn4)nc23)cn1` [Example I-226, 1-(2-((4-((7-chloro-8-fluoroimidazo[1,5-a]pyridin-1-yl)methylcarbamoyl)-1H-1,2,3-triazol-1-yl)methyl)-6-cyclopropylimidazo[1,2-a]pyridin-8-yl)-1H-imidazole-4-carboxylic acid], the EC50 was less than 1 nM. With `O=C(NCc1ncn2ccc(Cl)cc12)c1cnn(Cc2cn3cc(C4CC4)cc(N4CCCC4=O)c3n2)c1` [Example I-114, N-((7-chloroimidazo[1,5-a]pyridin-1-yl)methyl)-1-((6-cyclopropyl-8-(2-oxopyrrolidin-1-yl)imidazo[1,2-a]pyridin-2-yl)methyl)-1H-pyrazole-4-carboxamide], the EC50 is less than 1 nM. For `N#Cc1cc(C2CC2)cn2cc(Cc3nnc(C(=O)NCc4ncn5ccc(Cl)c(F)c45)o3)nc12` [Example I-158, N-((7-chloro-8-fluoroimidazo[1,5-a]pyridin-1-yl)methyl)-5-((8-cyano-6-cyclopropylimidazo[1,2-a]pyridin-2-yl)methyl)-1,3,4-oxadiazole-2-carboxamide] the value was less than 1 nM. As for `O=C(NCc1ncn2ccc(Cl)cc12)c1cn(Cc2cn3cc(C4CC4)ccc3n2)nc1C1COC1` [Example I-102, N-((7-chloroimidazo[1,5-a]pyridin-1-yl)methyl)-1-((6-cyclopropylimidazo[1,2-a]pyridin-2-yl)methyl)-3-(oxetan-3-yl)-1H-pyrazole-4-carboxamide], the EC50 was less than 1 nM. With `O=C(NCc1ncn2ccc(Br)cc12)c1nnc(Cc2cn3cc(C4CC4)ccc3n2)o1` [Example I-52, N-((7-bromoimidazo[1,5-a]pyridin-1-yl)methyl)-5-((6-cyclopropylimidazo[1,2-a]pyridin-2-yl)methyl)-1,3,4-oxadiazole-2-carboxamide], the EC50 is less than 1 nM.

Take `O=C(NCc1ncn2ccc(Cl)c(F)c12)c1cn(Cc2cn3cc(C4CC4)ccc3n2)c(C(=O)O)n1` [Example I-261, 4-(((7-chloro-8-fluoroimidazo[1,5-a]pyridin-1-yl)methyl)carbamoyl)-1-((6-cyclopropylimidazo[1,2-a]pyridin-2-yl)methyl)-1H-imidazole-2-carboxylic acid]: the concentration for a half-maximal effect (EC50) was less than 1 nM. For `O=C(NCc1ncn2ccc(Cl)c(F)c12)c1cn(Cc2cn3cc(C4CC4)cc(CS(=O)(=O)NCC(F)(F)F)c3n2)nn1` [Example I-281, N-((7-chloro-8-fluoroimidazo[1,5-a]pyridin-1-yl)methyl)-1-((6-cyclopropyl-8-((N-(2,2,2-trifluoroethyl)sulfamoyl)methyl)imidazo[1,2-a]pyridin-2-yl)methyl)-1H-1,2,3-triazole-4-carboxamide], the EC50 is less than 1 nM.

Consider `O=C(NCc1ncn2cc(F)c(Br)cc12)c1cnn(Cc2cn3cc(C4CC4)ccc3n2)c1` [Example I-151, N-((7-bromo-6-fluoroimidazo[1,5-a]pyridin-1-yl)methyl)-1-((6-cyclopropylimidazo[1,2-a]pyridin-2-yl)methyl)-1H-pyrazole-4-carboxamide], for which the EC50 is 10 to 100 nM. As for `Cn1nc(C(=O)NCc2ncn3ccc(Cl)cc23)nc1Cc1cn2cc(C3CC3)ccc2n1` [Example I-160, N-((7-chloroimidazo[1,5-a]pyridin-1-yl)methyl)-5-((6-cyclopropylimidazo[1,2-a]pyridin-2-yl)methyl)-1-methyl-1H-1,2,4-triazole-3-carboxamide], the figure is 1 to 10 nM.

`O=C(NCc1ncn2ccc(Cl)cc12)c1cnn(Cc2cn3cc(C4CC4)cc(CN4CCOCC4)c3n2)c1` [Example I-101, N-((7-chloroimidazo[1,5-a]pyridin-1-yl)methyl)-1-((6-cyclopropyl-8-(morpholinomethyl)imidazo[1,2-a]pyridin-2-yl)methyl)-1H-pyrazole-4-carboxamide]: the concentration giving a half-maximal response (EC50) was less than 1 nM. Take `O=C(O)c1cnn(Cc2cc(C3CC3)cn3cc(Cn4cc(C(=O)NCc5ncn6ccc(Cl)c(F)c56)nn4)nc23)c1` [Example I-193, 1-((2-((4-(((7-chloro-8-fluoroimidazo[1,5-a]pyridin-1-yl)methyl)carbamoyl)-1H-1,2,3-triazol-1-yl)methyl)-6-cyclopropylimidazo[1,2-a]pyridin-8-yl)methyl)-1H-pyrazole-4-carboxylic acid]: the concentration giving a half-maximal response (EC50) was less than 1 nM. Consider `O=C(NCc1ncn2ccc(Cl)cc12)c1cnn(Cc2cn3cc(C4CC4)cc(C(=O)O)c3n2)c1` [Example I-72, 2-((4-(((7-chloroimidazo[1,5-a]pyridin-1-yl)methyl)carbamoyl)-1H-pyrazol-1-yl)methyl)-6-cyclopropylimidazo[1,2-a]pyridine-8-carboxylic acid], for which the concentration for a half-maximal effect (EC50) is 1 to 10 nM.
